A short description of series [1]: Acute toxicity (LD50), mouse, oral, method of Reed and Muench. The class given is in vivo, mouse (albino). Particulars: mouse, in vivo, po. Here is the method: (§1) The acute toxicities for the mouse are also very low. The medium lethal dose (LD50) for the mouse was determined according to the modified method of Reed and Muench (Reed L. J. & Muench H., Am. J. Hyg., 27, 493, 1938).
(§2) 1. ACUTE TOXICITY IN THE MOUSE AND RAT
(§3) 18 to 25 gr albino mouse.
(§4) The LD50 was determined according to the method of Reed and Muench. […]

In series [2] the test system is rats treated with Triton WR-1339. As to the kind of experiment: Hypolipemic action on the rat, Triton WR-1339 method. The class given is in vivo. Particulars: for Percentage reduction of lipids: Cholesterol / Percentage reduction of lipids: Total Lipids / Percentage reduction of lipids: Triglycerides: Table VI, with respect to Triton WR-1339. Here is the method: The above-mentioned Triton WR-1339 method was selected. The total cholesterol, triglycerides and total lipids were determined in the serum. The amount of Triton WR-1339 administered to the animals was 300 mg/kg. The amount of piperazine 2,5-dihydroxy benzene sulfonate mono-tosylate administered was 2 mMoles/Kg orally. The letter P signifies probability.
The above-mentioned Triton WR-1339 method was selected. The total cholesterol, triglycerides and total lipids were determined in the serum. The results obtained are given in Table V. The amount of Triton WR-1339 administered to the animals was 300 mg/Kg. The amount of the piperazine salt with one mole of the di-0-(p-chloro phenoxy isobutyrate) of 2,5-dihydroxy benzene sulfonic acid administered was 1 mMol/Kg orally. The letter P signifies probability.
In this Triton WR-1339 method, all the compounds are administered at a dose of 2 mMoles/Kg orally excepted those compounds in which is the residue of p-chlorophenoxy isobutyric acid, which are administered orally at a dose corresponding to 2 mMoles of R per Kg, i.e. the amount used is calculated on the basis of the residue R only.

Series [3] has as its system mouse. As to the kind of experiment: Acute toxicity (LD50), mouse, oral, method of Reed and Muench. The class given is in vivo, mouse (albino). Particulars: Table VI; species and route not printed in table (mouse per b12). Here is the method: as §1, §2, §3, §4
The test system of series [4] is white Leghorn chickens. As to the kind of experiment: Hypolipemic action on the chicken. The class given is in vivo, chicken (white Leghorn). As for the experimental part:
as §1
This study was performed with white Leghorn chickens, according to the above-mentioned method. The total cholesterol and the total lipids are determined in the plasma.

Series [5] can be described thus: Acute toxicity (LD50), rat, oral, method of Reed and Muench. Particulars: in vivo. Also noted: species or system rat (Sprague-Dawley). As for the experimental part:
as §2
100 to 150 gr. Sprague-Dawley rats.
The LD50 was determined according to the method of Reed and Muench.

[6] abbreviates: Table VI, species and route not printed in table (mouse per b12), read-out: LD50 (medium lethal dose).
Setting [7] is: orally, 2 mMoles of R (p-chlorophenoxy isobutyric acid residue) per Kg.
The mark [8] stands for this setting: Triton 300 mg/kg + compound 2 mMoles/Kg orally, P<0,0005.

Structures can show the parent of a compound that is named as a salt.

Take `CC(C)(Oc1ccc(Cl)cc1)C(=O)Oc1ccc(O)cc1S(=O)(=O)O` [calcium 2-O-(p-chlorophenoxyisobutyryl) 2,5-dihydroxy benzene sulfonate]: the LD50 in series [1] (setting [6]) worked out at 3.35 mg/kg. Moreover, in series [2] (setting [7]), the “Percentage reduction of lipids: Cholesterol” value was found to be 30%, the “Percentage reduction of lipids: Total Lipids” value is given as 26% and the “Percentage reduction of lipids: Triglycerides” value is recorded as 32%.
As to `Cc1ccc(S(=O)(=O)Oc2ccc(O)c(S(=O)(=O)O)c2)cc1` [diethylamine-2,5-dihydroxybenzenesulfonate monotosylate] [diethylamine 2,5-dihydroxy benzene sulfonate mono-tosylate], the “LD50 (medium lethal dose)” value in series [3] is 6.588 mg/kg. Further, in series [2] (2 mMoles/Kg orally), the “Percentage reduction of lipids: Cholesterol” value is on record as 23%, the “Percentage reduction of lipids: Total Lipids” value was determined as 31% and the “Percentage reduction of lipids: Triglycerides” value turned out to be 32%.
For the compound `CC(C)(Oc1ccc(Cl)cc1)C(=O)Oc1ccc(OC(=O)C(C)(C)Oc2ccc(Cl)cc2)c(S(=O)(=O)O)c1` [magnesium salt of di-O-(p-chloro phenoxy isobutyrate) of 2,5] [magnesium salt of di-O-(p-chlorophenoxy isobutyrate) of 2,5-dihydroxy benzene sulfonic acid], the “LD50 (medium lethal dose)” value in series [3] was 4.780 mg/kg. In series [2] (setting [7]), the “Percentage reduction of lipids: Cholesterol” value is 5%, the “Percentage reduction of lipids: Total Lipids” value came to 25% and the “Percentage reduction of lipids: Triglycerides” value is 51%.
Turning to `CC(C)(Oc1ccc(Cl)cc1)C(=O)Oc1ccc(O)c(S(=O)(=O)O)c1` [mono-p-chloro phenoxy isobutyrate of pyridine 2,5-dihydroxy benzene sulfonate], the LD50 in series [1] (setting [6]) stood at 900 mg/kg.
`Cc1ccc(S(=O)(=O)Oc2ccc(O)c(S(=O)(=O)O)c2)cc1` [morpholine 2,5-dihydroxybenzenesulfonate monotosylate] [morpholine 2.5-dihydroxybenzenesulphonate monotosylate]: the “LD50 (medium lethal dose)” value in series [3] is listed as 5.301 mg/kg. Besides, in series [2] (2 mMoles/Kg orally), the “Percentage reduction of lipids: Cholesterol” value is recorded as 12%, the “Percentage reduction of lipids: Total Lipids” value amounted to 31% and the “Percentage reduction of lipids: Triglycerides” value stood at 23%.
With `O=C(Oc1ccc(OC(=O)c2ccccc2)c(S(=O)(=O)O)c1)c1ccccc1` [morpholine 2.5-dihydroxybenzenesulphonate dibenzoate], the LD50 in series [1] (setting [6]) stood at 4000 mg/kg.
With `Cc1ccc(S(=O)(=O)Oc2ccc(O)c(S(=O)(=O)O)c2)cc1` [piperazine 2,5-dihydroxybenzenesulfonate monotosylate] [piperazine 2.5-dihydroxybenzenesulphonate monotosylate], in series [2] (2 mMoles/Kg orally), the “Percentage reduction of lipids: Cholesterol” value worked out at 18%, the “Percentage reduction of lipids: Total Lipids” value is on record as 42% and the “Percentage reduction of lipids: Triglycerides” value stood at 43%. Moreover, the total cholesterol in series [2] (Triton 300 mg/kg + compound 2 mMoles/Kg orally, 0,0005<P<0,0025) was 232,3 mg % ml of plasma. Besides, in series [2] (setting [8]), the total lipids is 1211,4 mg % ml of plasma and the triglycerides is 639,8 mg % ml of plasma. In series [4] (final relative to initial value, check sample X = 1075), the “total lipids, b/a . 100 (Y)” value was 726. Moreover, the “total cholesterol, b/a . 100 (Y)” value in series [4] (final relative to initial value, check sample X = 1514) is 1017. In series [4] (final value), the “total cholesterol, final value (b)” value is on record as 947,2 mg % ml of plasma and the “total lipids, final value (b)” value was 2360,8 mg % ml of plasma. Also, in series [4] (initial value), the “total cholesterol, initial value (a)” value is given as 93,1 mg % ml of plasma and the “total lipids, initial value (a)” value was 325,2 mg % ml of plasma.
`Cc1ccc(S(=O)(=O)Oc2ccc(O)c(S(=O)(=O)O)c2)cc1` [piperazine 2.5-dihydroxybenzenesulphonate monotosylate]: the LD50 in series [1] (mouse female, read-out: LD50) was over 10800 mg/kg; in series [1] (mouse male, read-out: LD50) it was over 10800 mg/kg; in series [5] (rat female), 11900 mg/kg; in series [5] (rat male) it was over 11900 mg/kg.
In the case of `CC(C)(Oc1ccc(Cl)cc1)C(=O)Oc1ccc(OC(=O)C(C)(C)Oc2ccc(Cl)cc2)c(S(=O)(=O)O)c1` [piperazine mono-salt of di-O-(p-chlorophenoxy isobutyrate) of 2,5-dihydroxy benzene sulfonic acid], the LD50 was determined as 11000 mg/kg in series [1] (setting [6]); 8700 mg/kg in series [1] (mouse female, read-out: LD50); 11000 mg/kg in series [1] (mouse male, read-out: LD50); 11700 mg/kg in series [5] (rat female); 11000 mg/kg in series [5] (rat male).
As to `Cc1ccc(S(=O)(=O)Oc2ccc(O)c(S(=O)(=O)O)c2)cc1` [piperidine 2.5-dihydroxybenzenesulphonate monotosylate], in series [1] (setting [6]), the LD50 was found to be 5000 mg/kg.
For the compound `Cc1ccc(S(=O)(=O)Oc2ccc(OS(=O)(=O)c3ccc(C)cc3)c(S(=O)(=O)O)c2)cc1` [pyridine 2,5-dihydroxy benzene sulfonate ditosylate], the LD50 in series [1] (setting [6]) came out at 700 mg/kg. In addition, in series [2] (2 mMoles/Kg orally), the “Percentage reduction of lipids: Cholesterol” value is listed as 17%, the “Percentage reduction of lipids: Total Lipids” value is given as 31% and the “Percentage reduction of lipids: Triglycerides” value worked out at 44%.
In the case of `Cc1ccc(S(=O)(=O)Oc2ccc(O)c(S(=O)(=O)O)c2)cc1` [pyridine 2,5-dihydroxybenzenesulfonate monotosylate] [pyridine 2,5-dihydroxy benzene sulfonate mono-tosy-late], in series [3], the “LD50 (medium lethal dose)” value came to 680 mg/kg. In addition, in series [2] (2 mMoles/Kg orally), the “Percentage reduction of lipids: Cholesterol” value stood at 18%, the “Percentage reduction of lipids: Total Lipids” value came out at 27% and the “Percentage reduction of lipids: Triglycerides” value is 36%.

These data come from patent US3954767A, “Piperazine salts of 2,5-dihydroxy benzene sulfonic acid mono- and diesters” (priority 1972, dated 1976).
